For test [1], the system named is MIN-6 cell line. Description: Glucose stimulated insulin secretion assay, Example 5. It is filed as cell-based, mouse. To be noted: MIN-6, glucose 2, 10 and 20 mM, 1 hour. The procedure: In this test, a glucose stimulated insulin secretion assay was performed using the MIN-6 cell line and compounds C1 and C2 of Example 4. The test details and assay conditions are set forth below.
(§1) The cells were washed with KRB containing 0.1% BSA and starved for 1 hour in 2 mM glucose-KRB/BSA at 37° C. in 5% CO2. Following starvation, the cells were treated with or without the compounds at varying glucose concentrations of 2 mM, 10, mM, and 20 mM in KRB/BSA for 1 hour at 37° C. in 5% CO2. The amount of secreted mouse insulin was measured in the KRB/BSA incubation buffer using the mouse insulin ELISA kit from Mercer EXPert Assays. The cells were then lysed for protein quantification. The data presented in FIGS. 5-6 illustrate the secreted insulin test results for glucose and diazoxide, while FIGS. 7-9 (compound C1) and 10-12 (compound C2) illustrate the secreted insulin test results using C1 and C2. The data presented in FIGS. 7-12 are presented as the fold changes in the secreted insulin per milligram protein per hour, compared to the cell control.

For test [2], the system named is MIN-6 cell line. Description: Glucose stimulated insulin secretion assay, Example 6. It counts as cell-based, mouse. The conditions noted are these: MIN-6, 100 nM, 10 mM of glucose, 1 hour. The procedure: In this test, a glucose stimulated insulin secretion assay was performed using the MIN-6 cell line and a compound mixture of compounds VIIID and VIIIF (MW about 540), referred to as C3. The test details and assay conditions are set forth below.
as §1, with “data is” for “data”, “13 (gliclazide)” for “5-6 illustrate the secreted insulin test results for glucose”, “14-16 (C3)” for “diazoxide, while FIGS. 7-9 (compound C1) and 10-12 (compound C2) illustrate the secreted insulin test results using C1 and C2. The data presented in FIGS. 7-12 are presented”, “change” for “changes”

Test [3] has as its system MIN-6 cell line. As to the kind of experiment: Glucose stimulated insulin secretion assay, Example 7. To be noted: 2 hours. It counts as cell-based, mouse. The procedure: In this test, another glucose stimulated insulin secretion assay was performed using two test compounds, namely C1 (MW about 378) and C3 (MW about 540). The MIN-6 cell line was used and the test details and assay conditions are set forth below.
The cells were revived and maintained in T-flasks. Upon reaching the required confluency, the cells were seeded in 96-well plates. The seeded cells were serum-starved in the presence of glucose for 30 minutes at 37° C. in 5% CO2. Following starvation, the cells were treated with or without the compounds at the varying glucose concentrations in KRB for 2 hours at 37° C. in 5% CO2. The cell supernatants were collected and tested for insulin secretion using the mouse insulin ELISA kit from Mercer EXPert Assays.

Test [4] relates to NOD mouse model of diabetes. As to the kind of experiment: NOD mouse model of diabetes, TQ 725 as single agent. It is filed as in vivo, mouse (NOD/ShiLtJ). The procedure:
This test was designed to evaluate the in vivo activity of the TQ-harmaline reaction product (referred to as “TQ 725”), which was a mixture of compounds I-IV and VI (MW about 378), V and VII (MW about 360), and VIIID and VIIIF (MW about 540), as single agent in the NOD mouse model of diabetes. […] The female NOD mice show evidence of diabetes onset by age week 12 and 70% presenting with diabetes (non-fasting plasma glucose higher than 250 mg/dl) by age week 20. The significant endpoint is assessment of weekly blood glucose levels.
The pancreatic tissues from the test mice were assayed by conventional insulin staining according to the following ratings: 0—no staining on islet cells; 1—of islets with positive stains, stain cells are minimal in number; 2—of islets with positive stain, stain cells are less than 50% of the cells; 3—of the islets with positive stains, stain cells are greater than 50% of the cells.
FIGS. 1 and 2 illustrate the body weight and blood glucose level results collected during the test. In each of these Figures, graph A refers to Group 1, the vehicle control (PO) QD to end; graph B refers to Group 2, 725.001 100 mg/kg days 1-27, followed by 400 mg/kg days 28 to end (PO); graph C refers to Group 3, 725.001 200 mg/kg (PO) QD to end; and graph D refers to Group 4, metformin 600 mg/kg (in H2O) Ad libitum days 1-8, followed by 600 mg/kg (PO) QD days 9 to end.

Test [5] can be described thus: Subsequent investigations of activity of the components of TQ 725. To be noted: context: diabetes; no method given.

These results are taken from patent US11453664B2, “Thymoquinone/harmaline and related reaction products” (Ankh Life Sciences Limited, priority 2018, dated 2022).

Turning to `CC1=NS(=O)(=O)c2cc(Cl)ccc2N1` [Diazoxide], in the test with MIN-6 cell line [1], the “effect on insulin secretion” value is listed as “significant inhibition of insulin secretion”.

Turning to `Cc1ccc(S(=O)(=O)NC(=O)NN2CC3CCCC3C2)cc1` (centres unmarked) [Gliclazide], the “effect on insulin secretion” value in the test on MIN-6 cell line [2] is listed as “enhanced insulin secretion”. In addition, the “insulin secretion at the lower glucose concentration” value in the test on MIN-6 cell line [3] (MIN-6, glucose 2 mM, 100 μM) is reported as “enhanced insulin secretion was observed”. For the same molecule, the “insulin secretion at the higher glucose concentration” value in the test on MIN-6 cell line [3] (MIN-6, glucose 25 mM) is “saturation effect”.

In the case of `CN(C)C(=N)N=C(N)N` [Metformin], in test [4] (Group 4: 600 mg/kg, data not deemed reliable), the body weight result is “trended downwardly”. Further, in test [4] (Group 4: ad libitum days 1-8, 600 mg/kg PO days 9-56, rating scale 0-3), the “insulin staining of pancreatic tissues, mean value” turned out to be 0.50.

As for `COc1ccc2c(c1)=NC1C(/C=C3/C=C(C(C)C)C(=O)C=C3C)=NCCC=21` (centres unmarked) [VII], in test [5], the “relative activity among the components of TQ 725” value is recorded as “most active”.

With `COc1ccc2c(c1)=NC1C(CC3(O)C=C(C(C)C)C(=O)C=C3C)=NCCC=21` (centres unmarked) [VI], the “relative activity among the components of TQ 725” value in test [5] is “most active”.
